Assay results as given in US7217730B2, “Method for the use of pyranoindole derivatives to treat infection with Hepatitis C virus” (Wyeth, priority 2002, dated 2007).
Like-named read-outs stand apart in the source and are kept apart here.

Key:
[1] = molecular target: T1, NS5B from the BK strain (genotype 1b) (Hepatitis C virus genotype 1b, UniProt P26663); test: Hepatitis C polymerase inhibition, NS5B BK strain, 33P-GTP filter assay; assay type: biochemical; details: for IC50: NS5B BK strain; for inhibition at 20 µM: 20 μM compound, read-out: HCV pol % inh at 20 μM
T1 construct: NS5B from the BK strain (genotype 1b) is expressed in E. coli as a protein in which the 21 C-terminal amino acids are replaced; made in house; host or cells: E. coli
T1 sequence (P26663 2420-2989): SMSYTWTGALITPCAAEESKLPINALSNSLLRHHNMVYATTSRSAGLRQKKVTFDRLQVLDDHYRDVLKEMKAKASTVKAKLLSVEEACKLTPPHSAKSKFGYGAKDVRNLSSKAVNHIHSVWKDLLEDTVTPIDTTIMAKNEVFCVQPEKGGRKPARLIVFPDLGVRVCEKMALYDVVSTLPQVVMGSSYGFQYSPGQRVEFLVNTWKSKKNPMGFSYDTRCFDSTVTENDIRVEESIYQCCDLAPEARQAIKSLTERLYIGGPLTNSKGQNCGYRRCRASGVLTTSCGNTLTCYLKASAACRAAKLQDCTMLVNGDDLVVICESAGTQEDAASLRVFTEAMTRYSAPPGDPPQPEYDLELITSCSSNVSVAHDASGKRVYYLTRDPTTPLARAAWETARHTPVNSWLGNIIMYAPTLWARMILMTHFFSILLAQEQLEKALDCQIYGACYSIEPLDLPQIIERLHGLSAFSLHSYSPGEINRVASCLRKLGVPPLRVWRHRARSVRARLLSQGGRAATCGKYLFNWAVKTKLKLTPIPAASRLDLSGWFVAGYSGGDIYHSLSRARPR
Summary of the method: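 E. coli-expressed NS5B (BK, genotype 1b) with the 21 C-terminal residues replaced by a linker-His6 tag was preincubated with compound for 15 min at room temperature. It then extended a hairpin-primed heteropolymeric RNA (~3 nM, ~760 nt product) with α-[33P]-GTP for 2 h at 22–25° C. The reaction was stopped with EDTA, and incorporated label was counted on filters.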

[2] = molecular target: BB7 (RNA-dependent RNA polymerase hepatitis C virus protein sequence derived from HCV replicon) (Hepatitis C virus genotype 1b, UniProt Q9WMX2); test: Hepatitis C polymerase inhibition, BB7 sequence; assay type: biochemical; details: Table 1B
Chain of BB7 (RNA-dependent RNA polymerase hepatitis C virus protein sequence derived from HCV replicon) (Q9WMX2 2420-3010): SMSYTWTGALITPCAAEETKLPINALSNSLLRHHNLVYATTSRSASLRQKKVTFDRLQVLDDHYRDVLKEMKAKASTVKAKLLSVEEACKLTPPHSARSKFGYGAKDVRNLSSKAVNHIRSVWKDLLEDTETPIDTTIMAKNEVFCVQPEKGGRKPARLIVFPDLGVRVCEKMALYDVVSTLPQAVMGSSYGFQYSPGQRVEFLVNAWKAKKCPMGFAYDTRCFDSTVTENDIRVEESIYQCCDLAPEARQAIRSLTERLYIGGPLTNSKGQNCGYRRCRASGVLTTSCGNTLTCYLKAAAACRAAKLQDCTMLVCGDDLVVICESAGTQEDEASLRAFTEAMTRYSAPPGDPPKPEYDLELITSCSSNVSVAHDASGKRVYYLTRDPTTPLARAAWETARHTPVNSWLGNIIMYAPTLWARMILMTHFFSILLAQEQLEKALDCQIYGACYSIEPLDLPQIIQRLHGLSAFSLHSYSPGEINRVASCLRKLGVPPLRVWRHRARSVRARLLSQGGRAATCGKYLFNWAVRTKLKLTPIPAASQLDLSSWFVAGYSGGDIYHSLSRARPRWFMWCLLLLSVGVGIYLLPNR

[3] = Table 1A, read-out: HCV pol BK IC50

Compound	IC50 ([1]; Table 1B, read-out: BK IC50)	IC50 [2]	inhibition at 20 µM ([1]; Table 1A)	IC50 [1, 3]
CCCC1(CC(=O)O)OCCc2c1[nH]c1c(C)c(OCCF)cc(C#N)c21 (stereo not drawn) [Example 369, [5-cyano-7-(2-fluoro-ethoxy)-8-methyl-1-propyl-1,3,4,9-tetrahydro-pyrano[3,4-b]indol-1-yl]acetic acid]	0.004 µM	0.01 µM	–	–
CCC(C)C1(CC(=O)O)OCCc2c1[nH]c1c(C(N)=O)ccc(C(F)(F)F)c21 [Example 278, (1R*,10S)-[8-aminocarbonyl-1-(1-methylpropyl)-5-trifluoromethyl-1,3,4,9-tetrahydropyrano[3,4-b]indol-1-yl]acetic acid]	15 µM	23 µM	–	–
CCCC1(C(=O)O)OCCc2c1[nH]c1c(F)ccc(C#N)c21 (stereo not drawn) [Example 342, (5-cyano-8-fluoro-1-propyl-1,3,4,9-tetrahydropyrano[3,4-b]indol-1-yl)carboxylic acid]	1.7 µM	10 µM	–	–
(8-cyano-1-cyclobutyl-5-trifluoromethyl-1,3,4,9-tetrahydropyrano[3,4-b]indol-1-yl)acetic acid [Example 277]	2.6 µM	6.2 µM	–	–
CC1(CC(=O)O)OCCc2c1[nH]c1c(Cl)ccc(Cl)c21 (stereo not drawn) [Example 242, (5,8-dichloro-1-methyl-1,3,4,9-tetrahydropyrano[3,4-b]indol-1-yl)acetic acid]	–	18 µM	–	–
CCOCC1(CC(=O)O)OCCc2c1[nH]c1cc(Cl)c(Cl)cc21 (stereo not drawn) [Example 241, (6,7-dichloro-1-ethoxymethyl-1,3,4,9-tetrahydropyrano[3,4-b]indol-1-yl)acetic acid]	–	> 30 µM	–	–
CCCC1(CC(=O)O)OCCc2c1[nH]c1c(Cl)cc(C)c(Cl)c21 (stereo not drawn) [Example 216, (5,8-dichloro-6-methyl-1-propyl-1,3,4,9-tetrahydropyrano[3,4-b]indol-1-yl)acetic acid]	–	–	86%	0.26 µM
Cc1cc(F)c2[nH]c3c(c2c1Br)CCOC3(CC(=O)O)c1ccccc1 (stereo not drawn) [Example 168, (5-bromo-8-fluoro-6-methyl-1-phenyl-1,3,4,9-tetrahydropyrano[3,4-b]indol-1-yl)acetic acid]	–	–	4%	> 10 µM
CCCC1(CC(=O)O)OCCc2c1[nH]c1c(F)ccc(Cl)c21 (stereo not drawn) [Example 214, (5-chloro-8-fluoro-1-propyl-1,3,4,9-tetrahydropyrano[3,4-b]indol-1-yl)acetic acid]	–	–	82%	0.74 µM
O=C(O)CC1(c2ccoc2)OCCc2c1[nH]c1c(F)cc(F)c(Br)c21 (stereo not drawn) [Example 192, [5-bromo-6,8-difluoro-1-(3-furyl)-1,3,4,9-tetrahydropyrano[3,4-b]indol-1-yl]acetic acid]	–	–	74%	> 5 µM
O=C(O)CC1(c2ccccc2)OCCc2c1[nH]c1c(Cl)cccc21 (stereo not drawn) [Example 78, (8-chloro-1-phenyl-1,3,4,9-tetrahydropyrano[3,4-b]indol-1-yl)acetic acid]	–	–	26%	> 20 µM
O=C(O)CC1(c2ccccc2)OCCc2c1[nH]c1c(Cl)cc(Cl)cc21 (stereo not drawn) [Example 105, (6,8-dichloro-1-phenyl-1,3,4,9-tetrahydropyrano[3,4-b]indol-1-yl)acetic acid]	–	–	57%	> 5 µM
O=C(O)CC1(c2ccccc2F)OCCc2c1[nH]c1cccc(Cl)c21 (stereo not drawn) [Example 20, [5-chloro-1-(2-fluorophenyl)-1,3,4,9-tetrahydropyrano[3,4-b]indol-1-yl]acetic acid]	–	–	21%	> 20 µM
CCC[C@@]1(CC(=O)O)OCCc2c1[nH]c1c(C)cc(F)c(C#N)c21 [Example 12, [(S)-5-cyano-6-fluoro-8-methyl-1-propyl-1,3,4,9-tetrahydropyrano[3,4-b]indol-1-yl]acetic acid]	–	–	–	0.6 µM
O=C(O)CC1(c2ccc(C(=O)O)cc2)OCCc2c1[nH]c1c(Br)cccc21 (stereo not drawn) [Example 87, 4-[8-bromo-1-(carboxymethyl)-1,3,4,9-tetrahydropyrano[3,4-b]indol-1-yl]benzoic acid]	–	–	42%	> 20 µM
